Patent US11414387B2, “Oxoacridinyl acetic acid derivatives and methods of use” (Stingthera, Inc., priority 2017, dated 2022)

Assays:
[1] = target: hSTING-R232 (Homo sapiens (Human), UniProt Q86WV6, H232R); experiment: STING differential scanning fluorimetry (DSF) assay, WT human STING; conditions: WT (R232) human STING aa140-379, net shift in melting temperature
[2] = target: mSTING-R232 (Mus musculus, UniProt Q3TBT3); experiment: STING differential scanning fluorimetry (DSF) assay, mouse STING; conditions: net shift in melting temperature
[3] = target: hSTING-WT (Homo sapiens (Human), UniProt Q86WV6, H232R); experiment: Radiometric filtration binding competition assay, hSTING-WT
hSTING-WT, sequence (Q86WV6 140-379 H232R): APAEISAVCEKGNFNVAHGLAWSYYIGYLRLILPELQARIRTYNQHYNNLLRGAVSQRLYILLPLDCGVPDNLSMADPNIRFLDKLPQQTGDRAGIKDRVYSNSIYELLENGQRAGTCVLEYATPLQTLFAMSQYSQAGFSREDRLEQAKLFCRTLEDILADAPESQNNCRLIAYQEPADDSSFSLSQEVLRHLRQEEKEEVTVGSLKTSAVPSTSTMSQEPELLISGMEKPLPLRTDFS
Description: A radiometric filtration binding competition assay was performed to quantify the binding affinity of compounds of the present application for the human or mouse STING protein, or associated HAQ human isoform. […] The resulting dose response was fit by non-linear regression to determine an IC50 value, from which a Ki value for each compound was extrapolated.
The resulting complexes were then filtered, dried, and scintillation fluid was added and the remaining radio signal was measured to determine the degree of compound ligand inhibition. This assay format was optimized for both the WT and HAQ isoforms of the human protein and the mouse orthologue protein.
Probe Concentration: Minimum concentration that achieved max assay window • g. Assay Format: Scintillation Proximity Bead or Filtration Binding Plate • h. […] Assay incubation times for successive incubation steps
WT-hSWAT: WT_FBA_HIS-SUMO-hSWAT IC50 (μM) (“WT”=Wild-type); HAQ-hSWAT: HAQ_FBA_HIS-SUMO-hSWAT IC50 (μM) (“HAQ”=human HAQ allele of STING protein); and WT-mSWAT: MOUSE_FBA_HIS-SUMO-mnSWAT IC50 (μM) which is the mouse isoform of STING protein.

[4] = target: STING protein (Homo sapiens (Human), UniProt Q86WV6, H232R); experiment: Cell based reporter assay of IRF activation (IRF-luciferase), THP1-dual-KI R232; conditions: read-out: THP1-dual-KI R232_IRF(Luciferase)_Activity Maximum measured (%)
STING protein, sequence (Q86WV6 whole entry H232R): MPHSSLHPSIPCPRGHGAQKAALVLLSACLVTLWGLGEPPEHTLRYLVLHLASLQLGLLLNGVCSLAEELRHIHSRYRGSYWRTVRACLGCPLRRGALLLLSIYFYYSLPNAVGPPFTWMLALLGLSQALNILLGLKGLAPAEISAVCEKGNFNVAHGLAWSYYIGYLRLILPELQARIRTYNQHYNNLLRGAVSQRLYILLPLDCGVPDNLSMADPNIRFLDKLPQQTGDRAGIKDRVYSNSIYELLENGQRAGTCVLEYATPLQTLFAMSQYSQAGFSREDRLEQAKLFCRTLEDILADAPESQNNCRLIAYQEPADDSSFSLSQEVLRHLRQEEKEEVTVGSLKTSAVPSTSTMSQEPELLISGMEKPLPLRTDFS
Excerpt: Briefly, THP-1 monocytes were transfected and selected for stable integration of 2 reporter constructs. Clones incorporating stably integrated vectors were further selected by antibiotic resistance to blastocidin and zeocin. The reporter constructs included: (1) firefly luciferase reporter gene under the control of an ISG54 promoter fused to five interferon (IFN)-stimulated response elements to measure IRF transcription factor binding activity and (2) secreted embryonic alkaline phosphatase reporter gene under transcription control of an IFN-beta minimal promoter fused to 5 copies of the NFkB consensus transcriptional response element and 3 copies of the c-Rel binding site.
The resulting THP-1 cell line was further modified to incorporate 3 amino acid point mutations (H71R A230G Q293R). This modification of the native TMEM173 gene in THP-1 cells (HAQ) was designed to produce a cell reporter that expressed the most common allelic variant in the human population (THP-1 R232, available from InvivoGen). Alternatively, the TMEM173 gene was knocked out to provide a congenic control to counter-screen for compound activation that was independent of the STING protein (THP-1 STING KO).
Once cell lines were established, reporter assay protocols were developed and optimized to screen small molecule compounds for agonist activity. Assay optimization for efficacy and Z′ value included titration of the following parameters:
• 1. Cell pre-activation with PMA • 2. Cell seeding density • 3. DMSO tolerance • 4. Media selection • 5. FBS concentration • 6. Incubation time • 7. Co-Assessment of cell viability by CTG assay • 8. Appropriate HPE and ZPE controls • 9. Dose Response Titration Final Assay SOP Conditions • 1. No pre-activation with PMA • 2. 5×10^4 cells/well in 96 well plate format • 3. <0.5% DMSO • 4. […] 10% FBS • 6. 14-18 hr incubation • 7. Cell Titer Glo reagent (Promega) following supernatant removal • 8.

[5] = target: mSTING (Mus musculus, UniProt Q3TBT3); experiment: Radiometric filtration binding competition assay, mSTING

hSTING-R232, sequence (Q86WV6 140-379 H232R): as the sequence (Q86WV6 140-379 H232R) above

SMILES | WT_DSF_hSWAT Tm Shift (° C.) [1] | MOUSE DSF_6xHIS-SUMO Tm Shift (° C.) [2] | IC50 [3] [µM] | Emax [4] [%] | IC50 [5] [µM]
O=C(O)Cn1c2ccccc2c(=O)c2cccc(Br)c21 [Compound 130] | B (“B” = 0-2° C.) | C (“C” = 5-15° C.) | > 300 |  | 
COc1cccc2c(=O)c3ccccc3n(CC(=O)O)c12 [Compound 131] | A (“A” < 0° C.) | A (“A” < 0° C.) | > 300 |  | 
CC(C(=O)O)n1c2ccccc2c(=O)c2ccc(Cl)c(Cl)c21 (stereo not drawn) [Compound 141] |  | A (“A” < 0° C.) | > 300 |  | 
O=C(O)Cn1c2cc(NC3CCNCC3)ccc2c(=O)c2ccc(Cl)c(Cl)c21 [Compound 143] | B (“B” = 0-2° C.) | B (“B” = 0-5° C.) | > 300 |  | 
NC(=O)Cn1c2ccccc2c(=O)c2ccc(Cl)c(Cl)c21 [Compound 146] |  | B (“B” = 0-5° C.) |  |  | 
C[C@@H](Oc1c(Cl)ccc2c(=O)c3ccccc3n(CC(=O)O)c12)c1ccccc1 [Compound 296] | A (“A” < 0° C.) |  | > 300 | < 5 | > 300
C[C@H](O)COc1c(Cl)ccc2c(=O)c3ccccc3n(CC(=O)O)c12 [Compound 302] | A (“A” < 0° C.) |  | > 300 | < 5 | > 300
[N-]=[N+]=NCc1c(Cl)ccc2c(=O)c3ccccc3n(CC(=O)O)c12 [Compound 305] | B (“B” = 0-2° C.) |  | > 300 | < 5 | > 300
COc1cc(Cl)c(OC)c2c1c(=O)c1ccccc1n2CC(=O)O [Compound 313] | B (“B” = 0-2° C.) |  | > 300 | < 5 | > 300
COc1c(Cl)c(O)cc2c(=O)c3ccccc3n(CC(=O)O)c12 [Compound 315] | B (“B” = 0-2° C.) |  | > 300 | < 5 | > 300
COc1c(Cl)c(N)cc2c(=O)c3ccccc3n(CC(=O)O)c12 [Compound 316] | B (“B” = 0-2° C.) |  | > 300 | < 5 | > 300
COc1c(Cl)ccc2c(=O)c3cc(O)c(C(C)C)cc3n(CC(=O)O)c12 [Compound 317] | B (“B” = 0-2° C.) |  | > 300 | < 5 | > 300
COc1c(Cl)ccc2c(=O)c3cc(N(C)C)c(C(C)C)cc3n(CC(=O)O)c12 [Compound 319] | A (“A” < 0° C.) |  | > 300 | < 5 | > 300
COc1c(Cl)ccc2c(=O)c3cc(N)c(C(C)C)cc3n(CC(=O)O)c12 [Compound 320] | A (“A” < 0° C.) |  | 100 to 300 | < 5 | > 300
CCOC(=O)Cn1c2cc(C)ccc2c(=O)c2ccc(Cl)c(OCC)c21 [Compound 321] | B (“B” = 0-2° C.) |  | > 300 | 5 to 25 | > 300
CCOc1c(Cl)ccc2c(=O)c3ccc(C)cc3n(CC(=O)OC)c12 [Compound 322] | B (“B” = 0-2° C.) |  | > 300 | 5 to 25 | > 300
CONC(=O)Cn1c2cc(C)ccc2c(=O)c2ccc(Cl)c(OC)c21 [Compound 339] | B (“B” = 0-2° C.) |  | > 300 | 25 to 50 | 
COc1c(Cl)ccc2c(=O)c3ccc(C)cc3n(CC(=O)NS(C)(=O)=O)c12 [Compound 347] | C (“C” = 2-7° C,) |  | 100 to 300 | > 50 | 
COc1c(Cl)ccc2c(=O)c3ccc(C)cc3n(CC(=O)NS(=O)(=O)C3CC3)c12 [Compound 348] | C (“C” = 2-7° C,) |  | 100 to 300 | > 50 | 
CCS(=O)(=O)NC(=O)Cn1c2cc(C)ccc2c(=O)c2ccc(Cl)c(OC)c21 [Compound 349] | C (“C” = 2-7° C,) |  | > 300 | > 50 | 

Continued, values first:

WT_DSF_hSWAT Tm Shift (° C.) [1] | MOUSE DSF_6xHIS-SUMO Tm Shift (° C.) [2] | IC50 [3] [µM] | Emax [4] [%] | IC50 [5] [µM] | SMILES
A (“A” < 0° C.) | B (“B” = 0-5° C.) | 100 to 300 |  |  | COc1ccc2c(c1C)c(=O)c1ccc(Cl)c(Cl)c1n2CC(=O)O [Compound 133]
C (“C” = 2-7° C,) |  | 20 to 100 | 25 to 50 | 20 to 100 | O=C(O)Cn1c2cc(-c3ccoc3)ccc2c(=O)c2ccc(Cl)c(Cl)c21 [Compound 183]
A (“A” < 0° C.) |  | 20 to 100 |  | > 300 | Cc1c(C(C)C)ccc2c(=O)c3ccc(Cl)c(Cl)c3n(CC(=O)O)c12 [Compound 193]
C (“C” = 2-7° C,) |  | 100 to 300 |  | 100 to 300 | O=C(O)Cn1c2cc(N3CCCCC3)ccc2c(=O)c2ccc(Cl)c(Br)c21 [Compound 198]
C (“C” = 2-7° C,) |  | 100 to 300 |  | 20 to 100 | O=C(O)Cn1c2cc(C3=CCC(O)CC3)ccc2c(=O)c2ccc(Cl)c(Cl)c21 (stereo not drawn) [Compound 213]
A (“A” < 0° C.) |  | 20 to 100 | < 5 | 100 to 300 | O=C(O)Cn1c2ccccc2c(=O)c2ccc(Cl)c(Oc3nccc4ccccc34)c21 [Compound 243]
D (“D” > 7° C.) |  | 20 to 100 | > 50 | 20 to 100 | COc1c(Cl)ccc2c(=O)c3ccc(C4CCCOC4)cc3n(CC(=O)O)c12 (stereo not drawn) [Compound 253]
C (“C” = 2-7° C,) |  | 100 to 300 |  | 20 to 100 | O=C(O)Cn1c2ccccc2c(=O)c2ccc(Cl)c(-c3ccccc3)c21 [Compound 256]
C (“C” = 2-7° C,) |  | 20 to 100 | < 5 | 20 to 100 | COc1c(Cl)ccc2c(=O)c3ccc(C(C)C)cc3n(CC(=O)NS(=O)(=O)C(F)(F)F)c12 [Compound 261]
C (“C” = 2-7° C,) |  | 20 to 100 | > 50 | 100 to 300 | COc1c(Cl)ccc2c(=O)c3cc(Br)c(C(C)C)cc3n(CC(=O)O)c12 [Compound 268]
D (“D” > 7° C.) |  | < 20 | > 50 | < 20 | CSc1c(Cl)ccc2c(=O)c3ccc(-c4ccc(O)cc4)cc3n(CC(=O)O)c12 [Compound 271]
B (“B” = 0-2° C.) |  | 100 to 300 | < 5 | > 300 | C#CCOc1c(Cl)ccc2c(=O)c3ccccc3n(CC(=O)O)c12 [Compound 272]
C (“C” = 2-7° C,) |  | 20 to 100 | > 50 | 20 to 100 | C=CCOc1c(Cl)ccc2c(=O)c3ccccc3n(CC(=O)O)c12 [Compound 273]
D (“D” > 7° C.) |  | 20 to 100 | > 50 | < 20 | COc1c(Cl)ccc2c(=O)c3ccc(-c4cccc(N)c4)cc3n(CC(=O)O)c12 [Compound 275]
D (“D” > 7° C.) |  | < 20 | > 50 | < 20 | CSc1c(Cl)ccc2c(=O)c3ccc(Nc4ncccn4)cc3n(CC(=O)O)c12 [Compound 276]
D (“D” > 7° C.) |  | 20 to 100 | > 50 | 20 to 100 | CSc1c(Cl)ccc2c(=O)c3ccc(C)cc3n(CC(=O)O)c12 [Compound 279]
D (“D” > 7° C.) |  | < 20 | > 50 | < 20 | CSc1c(Cl)ccc2c(=O)c3ccc(C(C)C)cc3n(CC(=O)O)c12 [Compound 281]
D (“D” > 7° C.) |  | 20 to 100 | 25 to 50 | 20 to 100 | Cc1ccc2c(=O)c3ccc(Cl)c(OCc4ccccc4)c3n(CC(=O)O)c2c1 [Compound 285]
D (“D” > 7° C.) |  | < 20 | > 50 | < 20 | COc1c(Cl)ccc2c(=O)c3ccc(Nc4ccccc4OC(F)(F)F)cc3n(CC(=O)O)c12 [Compound 286]
D (“D” > 7° C.) |  | < 20 | 25 to 50 | 20 to 100 | CC(C)Sc1c(Cl)ccc2c(=O)c3ccc(C(C)(C)C)cc3n(CC(=O)O)c12 [Compound 290]
A (“A” < 0° C.) |  | 100 to 300 | < 5 | > 300 | C[C@H](Oc1c(Cl)ccc2c(=O)c3ccccc3n(CC(=O)O)c12)c1ccccc1 [Compound 295]
C (“C” = 2-7° C,) |  | 20 to 100 | < 5 | < 20 | O=C(O)Cn1c2cc(Cl)ccc2c(=O)c2ccc(Nc3ccccc3)cc21 [Compound 301]
C (“C” = 2-7° C,) |  | 20 to 100 | 5 to 25 | 100 to 300 | CCCCCCOc1c(Cl)ccc2c(=O)c3ccccc3n(CC(=O)O)c12 [Compound 303]
D (“D” > 7° C.) |  | 20 to 100 | > 50 | < 20 | CCSc1c(Cl)ccc2c(=O)c3ccc(C)cc3n(CC(=O)O)c12 [Compound 304]
C (“C” = 2-7° C,) |  | 20 to 100 | > 50 |  | CC(C)c1ccc2c(=O)c3ccc(Cl)c(Cl)c3n(CC(=O)NS(C)(=O)=O)c2c1 [Compound 352]
